Key:
Format in all cases: cell-based
S. aureus = assay: Rate of kill assessment, direct repeat inoculation of medium containing catheter; details: sample taken 5 seconds after each inoculation
Procedure: (§1) A microbiology assessment was performed using a medium of the invention comprising hypochlorous acid in an analogous manner to that performed for Example 2. However, for this test, following each inoculation, a sample was only taken after 5 seconds to evaluate the rate of kill. Further, in addition to the previous microorganisms tested, a further gram-positive organism, S. aureus, was tested.
(§2) A microbiology assessment was performed using a medium comprising chlorine dioxide in an analogous manner to that performed for Example 5.

E. faecalis = assay: as above; details: for Reduction in microbial colony forming unit (CFU) counts: reinoculation at 24 hours; for Time up to which rapid kill within 5 seconds following inoculation was observed: repeat inoculation, sample taken 5 seconds after each inoculation
Procedure: (§3) To assess the sterilisation potential of the medium comprising chlorine-containing species, a microbiology assessment was conducted which consisted of rate of kill assessments against repeat inoculation of E. coli and E. faecalis. These organisms were selected as they are commonly identified in catheter associated urinary tract infections. The selection also covers both gram-positive and gram-negative species to test the broad spectrum antimicrobial performance of the medium.
(§4) Intermittent urinary catheters, as used for Example 1, were provided and submerged in an aqueous medium comprising sodium hypochlorite and sodium chloride. The media comprising the catheters were respectively inoculated with the two microorganisms.
(§5) A direct inoculation method was applied against each microorganism. The test organisms were reinoculated following 1, 2, 3, 4, 5, 6, and 24 hours. Following each inoculation, a sample was taken after 5 seconds, 1, 5, 10 and 15 minutes to evaluate the rate of kill.
as §1, §2
(§6) A microbiology assessment was performed using the media comprising hypochlorous acid in an analogous manner to that performed for Example 2. However, for this test, following each inoculation, samples were taken after 5 seconds, 30 seconds, 1, 2, and 5 minutes to evaluate the rate of kill.

E. coli = assay: as above; details: sample taken 5 seconds after each inoculation
Procedure: as §3, §4, §5, §1, §2, §6

E. coli NCIMB 14067 = assay: Antimicrobial efficacy at very low concentrations, suspension test with total viable counts
Procedure: The antimicrobial efficacy of hypochlorous acid was tested at even lower concentrations (10, 25, and 50 ppm) against the challenging organism E. coli NCIMB 14067.
The representative colonies of E. coli NCIMB 14067 were dispersed in maximum recovery diluent (MRD) to obtain an optical density (OD540nm) equivalent to approximately 1×10^6 CFU/mL. A quantitative plate count was performed on this suspension to determine the total number of viable organisms inoculated. A new suspension was prepared for each concentration tested.
A 1000 ppm hypochlorous acid solution was diluted in sterile deionised water to provide the respective 10, 25 and 50 ppm hypochlorous acid solutions.
The hypochlorous acid samples were aliquoted into 9 mL volumes and 1 mL of the challenge organism suspension was added and mixed (the final number of bacteria present is now approximately 1×10^5 CFU/mL). Following 5, 30 seconds, 1, 2, and 5 minutes, 100 μL volumes were sampled and transferred to 0.9 mL and 9.9 mL of Dey-Engley Neutralising Broth (DENB) (to provide a 1:10 and 1:100 dilution respectively), and total viable counts were performed to establish the amount present. The plates were left to dry before being inverted and incubated at 35±3° C. for at least 48 hours. A negative control was also tested whereby 1 mL of the challenge organism suspension was added to 9 mL of MRD and tested as previously described. Following the incubation period, the number of CFUs were counted on the most appropriate dilution for each sample i.e. between 25-250 CFU/plate.

[1] = tested on: Enterococcus faecalis NCTC 12201; assay: In vitro direct inoculation method, bacterial levels over 5 minutes
Procedure: (§7) An in vitro direct inoculation method was used to assess the antimicrobial activity of sulfanilamide in an intermittent urinary catheter scenario against […] Escherichia coli NCIMB 14067 and […] Enterococcus faecalis NCTC 12201; two microorganisms associated with urinary tract infections. Sulfanilamide concentrations of 0.1% and 0.01% were tested and bacterial levels monitored over a period of 5 minutes.
(§8) Representative colonies of the challenge microorganisms, from an 18-24 hour challenge culture plate, were dispersed in MRD to obtain an optical density (OD540nm) equivalent to approximately 1×10^8 CFU/mL. This was diluted to obtain a working concentration of 1×10^6 CFU/mL. A quantitative count was performed to confirm the inoculum level.
(§9) The challenge organism was prepared in MRD to a concentration of approximately 1×10^6 CFU/mL. This suspension was added in a 1 mL volume to 9 mL of sample (n=3 per sample, n=2 per control) in a sterile 30 mL universal and pipetted up and down to mix. Following each testing period, 5 seconds, 30 seconds, 1 minute, 2 minutes and 5 minutes, 100 μL of the test solution was transferred to 0.9 mL and 9.9 mL volumes of DENB (1:10 and 1:100 dilutions respectively). The most appropriate dilutions were inoculated (100 μL) onto duplicate pre-dried (tryptone soy agar) TSA plates and the inoculum spread using separate sterile L-shaped spreaders (for 10^−1 and 10^−2 dilutions, 0.5 mL were placed onto duplicate plates). The TSA plates were allowed to dry before being inverted and incubated at 35±3° C. for at least 48 hours. Following the incubation period, the number of bacterial colonies were counted on the most appropriate dilution for each dressing type i.e. between 25-250 CFU/plate.
(§10) The samples tested were: 0.1% sulfanilamide in sterile deionised water (SDW); 0.01% sulfanilamide in SDW; 100 ppm hypochlorous acid in SDW; and a SDW control.

[2] = tested on: Escherichia coli NCIMB 14067; assay: as above
Procedure: as §7, §8, §9, §10

[3] = 100 ppm in SDW, within 5 seconds and for the remaining testing period
[4] = both concentrations tested (0.1% and 0.01% in SDW), any timepoint, 5 seconds to 5 minutes

SMILES | Time up to which rapid kill within 5 seconds following inoculation was observed (S. aureus) | Reduction in microbial colony forming unit (CFU) counts (E. faecalis; after around 30 seconds of inoculation) | Time up to which rapid kill within 5 seconds following inoculation was observed (E. faecalis) | Time up to which rapid kill within 5 seconds following inoculation was observed (E. coli) | Bacterial level at the 1 minute timepoint (E. coli NCIMB 14067; 10 ppm, about 1×10^5 CFU/mL inoculum) | Numbers of bacteria after 30 seconds (E. coli NCIMB 14067; 25 ppm, about 1×10^5 CFU/mL inoculum) | Numbers of bacteria after 30 seconds (E. coli NCIMB 14067; 50 ppm, about 1×10^5 CFU/mL inoculum) | CFU/mL of negative control (MRD) larger than for the samples (E. coli NCIMB 14067; all concentrations (10, 25, 50 ppm) and time points tested) | Numbers of challenge organism [1, 3] | Numbers of challenge organism [2, 3] | Reduction in microbial colony forming unit (CFU) counts (E. faecalis; after 5 minutes of inoculation) | Decrease in challenge organism numbers compared to the control [1, 4] | Decrease in challenge organism numbers compared to the control [2, 4]
[O][Cl+][O-] [chlorine dioxide] | up to 6 hours | 4 orders of magnitude | up to 6 hours | up to 24 hours |  |  |  |  |  |  |  |  | 
OCl [hypochlorous acid] | up to 6 hours |  | up to 6 hours | up to 24 hours | undetectable | undetectable | undetectable | over 4 orders of magnitude | undetectable | undetectable | over 3 orders of magnitude |  | 
Nc1ccc(S(N)(=O)=O)cc1 [sulfanilamide, reference compound] |  |  |  |  |  |  |  |  |  |  |  | no decrease | no decrease
